# Measurements taken from patent US6034064A, “Peptides and therapeutic agent for autoimmune diseases containing the same” (Hoechst Pharmaceuticals & Chemicals K.K., priority 1995, dated 2000).
# No end group written: not given here.
# Experiments:
# [1] = test system: anti-KLH antibody production; test: Suppressive effect on anti-KLH antibody production in mice (ELISA of serum IgG); assay type: in vivo, mouse (Balb/c); details: Example 7
# Method: Day 5 and day 3 prior to the antigen administration, 100 μg of each Peptide (I) to (VI) of the present invention composed of 9 amino acid residues indicated by Sequence ID No. 1 in the Sequence Listing were dissolved in 200 μl of physiological saline. The resulting solution was subcutaneously administered to 9-week-old Balb/c mice. As a control, a non-administered group to which the same amount of physiological saline was administered was employed. In 200 μl of physiological saline, 25 μg of KLH were dissolved as an antigen and the resulting solution was subcutaneously administered. The blood was collected on day 21 after antigen administration and an antibody titer was measured by the method which is described below.
# KLH was diluted to 10 μg/ml with a phosphate buffered physiological saline (PBS). Fifty μl portions of the resulting solution were poured into a 96-well microplate and the plate was allowed to stand at 4iC overnight. After the microplate was washed three times with 0.05% Tween®-20-containing PBS (T-PBS), 200 μl portions of 0.5% casein tris-buffered physiological saline (casein TBS) were poured into wells, respectively. […] The microplate was washed three times with T-PBS and 50 μl portions of the mouse serum diluted to 1/200 with casein TBS were poured into the wells, followed by reaction for one hour (primary reaction).
# The resulting microplate was washed three times with T-PBS, to which 50 μl portions of an anti-mouse IgG-peroxidase-labeled antibody (TAGO Co.) diluted to 1/4000 with casein TBS were poured. The reaction was effected at room temperature for one hour (secondary reaction). After the completion of the secondary reaction, the plate was washed three times again. Fifty μl portions of a substrate liquid/chromogen (chromogen substrate: Behringwerke AG) were poured into wells, respectively, followed by reaction at room temperature for 30 minutes. After the completion of the reaction, 0.5N diluted sulfuric acid was added to terminate the reaction and an absorbance at 450 nm was measured by a calorimeter ("BEP-II ", product of Behringwerke AG/Germany) with the absorbance at 650 nm as a control.
# In a similar manner to Example 3, suppressive effects of Peptides (I), (VII) to (XV) on anti-KLH antibody production in mice were studied.
# [2] = test system: anti-OVA antibody production; test: Suppressive effect on anti-OVA antibody production in mice (ELISA of serum IgG); assay type: in vivo, mouse (Balb/c); parameters: Anti OVA Ig-G antibody titer: dose or concentration left out as unconfirmed; details: for anti-OVA antibody production compared with the non-administered group and Peptide (I) administered group / anti-OVA antibody production compared with Peptide (I) administered group: Example 8
# Method: Day 5 and day 3 prior to the antigen administration, Peptide (I) composed of 9 amino acid residues as indicated by Sequence ID No. 1 in the Sequence Listing of the present invention and a synthetic peptide 15 composed of 15 amino acid residues derived from clone 17.2 TcR, which peptide had been reported by Mohapatra et al. as described above, 100 g each, were dissolved in 200 of physiological saline and each solution thus obtained was subcutaneously administered to 9-week-old Balb/c mice. As a control, a non-administered group to which the same amount of physiological saline was administered was employed. In 200 l of physiological saline, 100 g of OVA (Sigma Chemical Co.) were dissolved, followed by subcutaneous administration. Blood was collected on day 21 after antigen administration and an antibody titer was measured by the method described below.
# OVA was diluted to 10 µg/ml with phosphate buffered saline (PBS) and 50 l portions of the solution were poured in a 96-well microplate. The coating operation was conducted overnight at […]. The microplate was then washed three times with a 0.05% Tween®-20-containing PBS (T-PBS). 200 l portions of 0.5% casein-containing tris buffered physiological saline (casein TBS) were poured in each well and the microplate was allowed to stand at room temperature for one hour. The microplate was then washed three times with T-PBS. After the serum of the blood collected from the mice was diluted to 1/200 with 0.5% casein TBS, 50 l portions of the diluted serum were poured in each well and the plate was allowed to stand for one hour (primary reaction).
# After the completion of the primary reaction, the microplate was washed three times with T-PBS. Fifty l portions of anti-mouse IgG-peroxidase-labeled antibody (TAGO Co.) diluted to 1/4000 with 0.5% casein TBS were poured in each well, followed by reaction at room temperature for one hour (secondary reaction). After the completion of the secondary reaction, the plate was washed three times again. Fifty l portions of a substrate liquid/chromogen (chromogen substrate: Behringwerke AG) were poured in each well, followed by reaction at room temperature for 30 minutes. After the completion of the reaction, 0.5N diluted sulfuric acid was added to terminate the reaction and an absorbance at 450 nm was measured by a calorimeter ("BEP-II", product of Behringwerke AG/Germany) with an absorbance at 650 nm as a control.
# In a similar manner to Example 2, the suppressive effects of Peptides (I), (VII) to (XIV) on the anti-OVA antibody production in mice were measured.
# EAE model mice = test: Onset suppressive effect on EAE model mice; assay type: in vivo, mouse (SJL)
# Method: As an antigen, guinea pig spinal chord homogenate was employed. The guinea pig spinal chord homogenate was diluted with PBS to be 6.6 mg/ml, followed by the addition of the equivalent amount of Freunds complete adjuvant. The resulting mixture was formed into an emulsion by an ultrasonic sonicator. The resulting emulsion was administered to two areas under the lateral skin in a total amount of 300 μl. Day 5 and day 3 prior to antigen administration, and 5 days a week for 4 weeks after antigen administration, the solution of Peptide (I) dissolved in 100 μl physiological saline was subcutaneously administered to a 14-week old SJL mouse. Incidentally, in order to increase an onset ratio, […] of pertussis toxin (PTX) were intravenously administered as an enhancer on the day of antigen administration and two days after antigen administration. Observation of the onset was performed from day 14 to day 28 after primary antigen administration. The onset was scored based on the following standard criteria [Pettinelli, C. B., Fritz, D. E., and McFarlin, D. E. J. Immunl., 129, No. 3, 1024-1028 (1982)]. In Table 3, values of average score+standard deviation (SD) in each administration group on day 22, day 25 and day 28 after primary antigen administration are shown.
# Score 1: Slight paralysis of hind leg with tail weakness
# Score 2: Moderate paralysis of hind leg with tail weakness
# Score 3: Total paralysis of hind leg
# Score 4: Slight paralysis of forward leg with total paralysis of hind leg
# Score 5: Total paralysis of all leg
# Score 6: Death from paralysis
substance,measurement,setting,value
"KLTFGKG [Peptide (XV), Lys-Leu-Thr-Phe-Gly-Lys-Gly]",anti-KLH antibody production compared with Peptide (I) administered group,[1],not suppressed
"AKLTFGKG [Peptide (VII), Ala-Lys-Leu-Thr-Phe-Gly-Lys-Gly]",anti-OVA antibody production compared with the non-administered group and Peptide (I) administered group,[2],significantly suppressed
same,anti-KLH antibody production compared with the non-administered group and Peptide (I) administered group,[1],significantly suppressed
"AKLTFAKG [Peptide (X), Ala-Lys-Leu-Thr-Phe-Ala-Lys-Gly]",anti-KLH antibody production compared with the non-administered group and Peptide (I) administered group,[1],significantly suppressed
"AKLTFGKGT [Peptide (I), Ala-Lys-Leu-Thr-Phe-Gly-Lys-Gly-Thr]",Anti OVA Ig-G antibody titer,"[2]; Example 2, Table 1, peptide s.c. day 5 and day 3 prior to OVA, blood day 21, 8 mice per group",8.8 ± 10.8 unit
same,anti-OVA antibody production compared with the non-administered group,"[2]; Example 2, 8 mice per group",significantly suppressed
same,EAE average score ± SD,"EAE model mice; 1 μg/body s.c., Day 22",1.6 ± 1.8 score
same,EAE average score ± SD,"EAE model mice; 1 μg/body s.c., Day 25",0.9 ± 1.1 score
same,EAE average score ± SD,"EAE model mice; 1 μg/body s.c., Day 28",1.8 ± 1.9 score
same,EAE average score ± SD,"EAE model mice; 5 μg/body s.c., Day 22",0.4 ± 0.7 score
same,EAE average score ± SD,"EAE model mice; 5 μg/body s.c., Day 25",1.0 ± 1.1 score
same,EAE average score ± SD,"EAE model mice; 5 μg/body s.c., Day 28",0.7 ± 0.8 score
same,onset of EAE compared with physiological saline group,"EAE model mice; 5 μg/body, day 25 and day 28, significant difference of 5%",suppressed
same,EAE average score ± SD,"EAE model mice; 25 μg/body s.c., Day 22 after primary antigen administration",0.3 ± 0.4 score
same,EAE average score ± SD,"EAE model mice; 25 μg/body s.c., Day 25",0.1 ± 0.3 score
same,EAE average score ± SD,"EAE model mice; 25 μg/body s.c., Day 28",0.0 ± 0.0 score
same,onset of EAE compared with physiological saline group,"EAE model mice; 25 μg/body, from day 22 significant difference of 5%, from day 25 of 1%",suppressed
same,onset of EAE,"EAE model mice; administration of Peptide (I), overall",suppressed
"AKLTAGKG [Peptide (XIV), Ala-Lys-Leu-Thr-Ala-Gly-Lys-Gly]",anti-OVA antibody production compared with Peptide (I) administered group,[2],not suppressed
same,anti-KLH antibody production compared with Peptide (I) administered group,[1],not suppressed
"AALTFGKG [Peptide (VIII), Ala-Ala-Leu-Thr-Phe-Gly-Lys-Gly]",anti-KLH antibody production compared with Peptide (I) administered group,[1],not suppressed
"AKLAFGKG [Peptide (IX), Ala-Lys-Leu-Ala-Phe-Gly-Lys-Gly]",anti-OVA antibody production compared with the non-administered group and Peptide (I) administered group,[2],significantly suppressed
same,anti-KLH antibody production compared with the non-administered group and Peptide (I) administered group,[1],significantly suppressed
"AKLTFGAG [Peptide (XI), Ala-Lys-Leu-Thr-Phe-Gly-Ala-Gly]",anti-OVA antibody production compared with the non-administered group and Peptide (I) administered group,[2],significantly suppressed
same,anti-KLH antibody production compared with the non-administered group and Peptide (I) administered group,[1],significantly suppressed
"AKATFGKG [Peptide (XIII), Ala-Lys-Ala-Thr-Phe-Gly-Lys-Gly]",anti-OVA antibody production compared with Peptide (I) administered group,[2],not suppressed
same,anti-KLH antibody production compared with Peptide (I) administered group,[1],not suppressed
"AKLTFGKA [Peptide (XII), Ala-Lys-Leu-Thr-Phe-Gly-Lys-Ala]",anti-KLH antibody production compared with Peptide (I) administered group,[1],not suppressed
